Assay results taken from patent US20170290774A1, “NEUROKININ-1 RECEPTOR ANTAGONIST COMPOSITION FOR TREATMENT OF DISEASES AND CONDITIONS OF THE RESPIRATORY TRACT” (PLUS VITECH, S.L., priority 2014, published 2017).

Columns and labels:
TNF-α = assay: Immunohistochemistry of TNF-α in respiratory tract tissue of sodium hypochlorite aerosol-treated rabbits; type: in vivo, New Zealand albino rabbits
Description: (§1) It is known that the factors TGF-α, TGF-β 1, TGF-β 2, TGF-β 3, SPARC, MMP-3; MMP-7, MMP-9, MMP-11, MMP-13 and MMP-14, TGF-β, NF-kB, EGF, MMP-9, VEGF and TNF-α which are produced by lung cells (pneumocytes, fibroblasts and vascular endothelial cells) and inflammatory cells (macrophages, lymphocytes and polymorphonuclear leukocytes) are involved in the pathophysiology and development of said respiratory tract diseases. […] Herein, 27 New Zealand albino rabbits (New Zealand White Rabbit) with an initial average weight about 3 kg were used in this example. All subjects were administered an aerosol of a solution consisting of a mixture of water and sodium hypochlorite (35 g sodium hypochlorite per liter of water) at a rate of 5 mL of said solution by inhalation three times a day for 7 days (days 1 to 7 of experimentation). Subsequently, from days 3 to 7, a group of 3 rabbits (Group 1) was administered an oral dose of 10 mg/kg body weight per day, another group of 3 rabbits (Group 2) was administered an oral dose of 40 mg/kg body weight per day, a third group (Group 3) was administered an oral dose of 80 mg/kg body weight per day and a fourth group (Group 4) was administered an oral dose of 100 mg/kg body weight per day. […] This mixture was administered as an aerosol by inhalation, also from days 3 to 7, to a group of 3 rabbits (group 5) at a dose of 0.05 mg/kg body weight per day, to another group of three rabbits (Group 6) at a dose of 0.1 mg/kg body weight per day, to another group of three rabbits (Group 7) at a dose of 0.2 mg/kg body weight per day and to another group of three rabbits (Group 8) at a dose of 0.4 mg/kg body weight per day. A placebo consisting only of olive oil was administered from days 3 to 7 to a control group of 3 rabbits (placebo group). In parallel, 3 rabbits were kept under identical conditions but were not administered any treatment nor the aforementioned sodium hypochlorite solution (control group). […] On day 7 of the experiment all animals were euthanized and necropsied. […] Samples were taken at the peripheral level of the lung parenchyma, just below the pleural surface. Tissue samples were also taken from the nasal cavity, pharynx, larynx and bronchi. Immunohistochemistry studies were performed for all samples to evaluate the levels of the markers TGF-α, TGF-β 1, TGF-β 2, TGF-β 3 SPARC, MMP-3; MMP-7, MMP-9, MMP-11, MMP-14, TGF-β, TNF-α and VEGF. In said immunohistochemistry studies, a sample of each sample was dehydrated by treatment with increasing concentrations of ethanol and finally xylene. Subsequently said dried samples were embedded in paraffin, thus creating a block. Said paraffin blocks were cut on a microtome to a thickness of 5 μm, and the resulting sections (slices) were placed on slides suitable for conducting immunohistochemistry techniques. Subsequently, the sections were deparaffinised by immersion in xylene and then rehydrated through immersion in a series of solutions containing decreasing concentrations of ethanol and, finally, water. […] The samples were then allowed to cool to room temperature over 10 minutes. Endogenous peroxidase activity was blocked by treatment with 3% hydrogen peroxide over 30 min at room temperature. […] In order to verify the expression of NK1 receptors, the cell samples were incubated in the presence of anti-NK1 antibodies ([…], Sigma-Aldrich) diluted 1:1000 at 4° C. overnight. After this time they were washed in 0.05M Tris buffer at room temperature. Subsequently, Envision System-HRP (Dako) reagents were added for 30 min at room temperature. Once this time had expired, the samples were again washed with 0.05 M Tris buffer, and immunoreactivity was visualized by light microscopy with a chromogenic solution with 3,3'-diaminobenzidine (DAB+; Dako, USA). In order to differentiate the cell nuclei, these were lightly stained with haematoxylin. Samples that were not incubated with the primary antibody, but wherein this was replaced by a non-immune serum were used as negative controls. […]

TGFβ1 = assay: Immunohistochemistry of TGFβ1 in respiratory tract tissue of sodium hypochlorite aerosol-treated rabbits; type: in vivo, New Zealand albino rabbits
Description: as §1

[1] = bronchial tissue, Group 1, oral 10 mg/kg per day
[2] = bronchial tissue, Group 2, oral 40 mg/kg per day
[3] = bronchial tissue, Group 3, oral 80 mg/kg per day
[4] = bronchial tissue, Group 4, oral 100 mg/kg per day
[5] = laryngeal tissue, Group 1, oral 10 mg/kg per day
[6] = laryngeal tissue, Group 2, oral 40 mg/kg per day
[7] = laryngeal tissue, Group 3, oral 80 mg/kg per day
[8] = laryngeal tissue, Group 4, oral 100 mg/kg per day
[9] = laryngeal tissue, Group 5, inhalation 0.05 mg/kg per day
[10] = laryngeal tissue, Group 6, inhalation 0.1 mg/kg per day
[11] = laryngeal tissue, Group 7, inhalation 0.2 mg/kg per day
[12] = laryngeal tissue, Group 8, inhalation 0.4 mg/kg per day
[13] = lung tissue, Group 1, oral 10 mg/kg per day
[14] = lung tissue, Group 2, oral 40 mg/kg per day
[15] = lung tissue, Group 3, oral 80 mg/kg per day
[16] = lung tissue, Group 4, oral 100 mg/kg per day
[17] = lung tissue, Group 5, inhalation 0.05 mg/kg per day
[18] = lung tissue, Group 6, inhalation 0.1 mg/kg per day
[19] = lung tissue, Group 7, inhalation 0.2 mg/kg per day
[20] = lung tissue, Group 8, inhalation 0.4 mg/kg per day
[21] = nasal cavity tissue, Group 1, oral 10 mg/kg per day
[22] = nasal cavity tissue, Group 2, oral 40 mg/kg per day
[23] = nasal cavity tissue, Group 3, oral 80 mg/kg per day
[24] = nasal cavity tissue, Group 4, oral 100 mg/kg per day
[25] = nasal cavity tissue, Group 5, inhalation 0.05 mg/kg per day
[26] = nasal cavity tissue, Group 6, inhalation 0.1 mg/kg per day
[27] = nasal cavity tissue, Group 7, inhalation 0.2 mg/kg per day
[28] = nasal cavity tissue, Group 8, inhalation 0.4 mg/kg per day
[29] = pharyngeal tissue, Group 1, oral 10 mg/kg per day
[30] = pharyngeal tissue, Group 2, oral 40 mg/kg per day
[31] = pharyngeal tissue, Group 3, oral 80 mg/kg per day
[32] = pharyngeal tissue, Group 4, oral 100 mg/kg per day
[33] = pharyngeal tissue, Group 5, inhalation 0.05 mg/kg per day
[34] = pharyngeal tissue, Group 6, inhalation 0.1 mg/kg per day
[35] = pharyngeal tissue, Group 7, inhalation 0.2 mg/kg per day
[36] = pharyngeal tissue, Group 8, inhalation 0.4 mg/kg per day

`C[C@@H](OC1OCCN(Cc2nc(=O)[nH][nH]2)C1c1ccc(F)cc1)c1cc(C(F)(F)F)cc(C(F)(F)F)c1` (stereo in doubt) [Aprepitant, 5-([(2R,3S)-2-((R)-1-[3,5-bis(trifluoromethyl)phenyl]ethoxy)-3-(4-fluorophenyl)morpholino]methyl)-1H-1,2,4-triazol-3(2H)-one] was tested, and the “Percent increase in TNF-α with respect to the control group” value (from here on “Percent increase in TNF-α”) (TNF-α; [1]) was 789.45%, the “Percent increase in TNF-α” value (TNF-α; [2]) was 580.67% and the “Percent increase in TNF-α” value (TNF-α; [3]) was 467.45%. The “Percent increase in TNF-α” value (TNF-α; [4]) was 356.34%, the “% Med G5/C: percent increase in marker TNF-α with respect to the control group” value (TNF-α; bronchial tissue, Group 5) was 673.34% and the “% Med G6/C: percent increase in marker TNF-α with respect to the control group” value (TNF-α; bronchial tissue, Group 6) was 451.23%. The “% Med G7/C: percent increase in marker TNF-α with respect to the control group” value (TNF-α; bronchial tissue, Group 7) was 325.21%, the “% Med G8/C: percent increase in marker TNF-α with respect to the control group” value (TNF-α; bronchial tissue, Group 8) was 201.23% and the “Percent increase in TNF-α” value (TNF-α; [5]) was 1,078.45%. The “Percent increase in TNF-α” value (TNF-α; [6]) was 809.99%, the “Percent increase in TNF-α” value (TNF-α; [7]) was 708.73% and the “Percent increase in TNF-α” value (TNF-α; [8]) was 509.87%. For the same compound, the “Percent increase in TNF-α” value (TNF-α; [9]) was 879.34%, the “Percent increase in TNF-α” value (TNF-α; [10]) was 456.34% and the “Percent increase in TNF-α” value (TNF-α; [11]) was 323.12%. The “Percent increase in TNF-α” value (TNF-α; [12]) was 150.34%, the “Percent increase in TNF-α” value (TNF-α; [13]) was 859.73% and the “Percent increase in TNF-α” value (TNF-α; [14]) was 685.01%. For the same compound, the “Percent increase in TNF-α” value (TNF-α; [15]) was 607.15%, the “Percent increase in TNF-α” value (TNF-α; [16]) was 463.11% and the “Percent increase in TNF-α” value (TNF-α; [17]) was 980.46%. For the same compound, the “Percent increase in TNF-α” value (TNF-α; [18]) was 470.69%, the “Percent increase in TNF-α” value (TNF-α; [19]) was 218.38% and the “Percent increase in TNF-α” value (TNF-α; [20]) was 151.28%. The “Percent increase in TNF-α” value (TNF-α; [21]) was 1,411.41%, the “Percent increase in TNF-α” value (TNF-α; [22]) was 842.93% and the “Percent increase in TNF-α” value (TNF-α; [23]) was 658.65%. The “Percent increase in TNF-α” value (TNF-α; [24]) was 418.29%, the “Percent increase in TNF-α” value (TNF-α; [25]) was 1,495.60% and the “Percent increase in TNF-α” value (TNF-α; [26]) was 736.83%. The “Percent increase in TNF-α” value (TNF-α; [27]) was 151.81%, the “Percent increase in TNF-α” value (TNF-α; [28]) was 122.23% and the “Percent increase in TNF-α” value (TNF-α; [29]) was 1,357.32%. For the same compound, the “Percent increase in TNF-α” value (TNF-α; [30]) was 987.63%, the “Percent increase in TNF-α” value (TNF-α; [31]) was 789.45% and the “Percent increase in TNF-α” value (TNF-α; [32]) was 418.29%. For the same compound, the “Percent increase in TNF-α” value (TNF-α; [33]) was 1,532.34%, the “Percent increase in TNF-α” value (TNF-α; [34]) was 989.36% and the “Percent increase in TNF-α” value (TNF-α; [35]) was 298.67%. The “Percent increase in TNF-α” value (TNF-α; [36]) was 167.34%, the “Percent increase in TGFβ1 with respect to the control group” value (shortened to “Percent increase in TGFβ1”) (TGFβ1; [1]) was 1,234.56% and the “Percent increase in TGFβ1” value (TGFβ1; [2]) was 984.45%. The “Percent increase in TGFβ1” value (TGFβ1; [3]) was 768.32%, the “Percent increase in TGFβ1” value (TGFβ1; [4]) was 502.23% and the “% Med G5/C: percent increase in marker TGFβ1 with respect to the control group” value (TGFβ1; bronchial tissue, Group 5) was 1,103.34%. The “% Med G6/C: percent increase in marker TGFβ1 with respect to the control group” value (TGFβ1; bronchial tissue, Group 6) was 708.45%, the “% Med G7/C: percent increase in marker TGFβ1 with respect to the control group” value (TGFβ1; bronchial tissue, Group 7) was 302.34% and the “% Med G8/C: percent increase in marker TGFβ1 with respect to the control group” value (TGFβ1; bronchial tissue, Group 8) was 124.37%. For the same compound, the “Percent increase in TGFβ1” value (TGFβ1; [5]) was 1,567.67%, the “Percent increase in TGFβ1” value (TGFβ1; [6]) was 1,278.89% and the “Percent increase in TGFβ1” value (TGFβ1; [7]) was 1,067.78%. The “Percent increase in TGFβ1” value (TGFβ1; [8]) was 988.78%, the “Percent increase in TGFβ1” value (TGFβ1; [9]) was 1,398.78% and the “Percent increase in TGFβ1” value (TGFβ1; [10]) was 760.87%. For the same compound, the “Percent increase in TGFβ1” value (TGFβ1; [11]) was 320.34%, the “Percent increase in TGFβ1” value (TGFβ1; [12]) was 102.23% and the “Percent increase in TGFβ1” value (TGFβ1; [13]) was 1,277.48%. The “Percent increase in TGFβ1” value (TGFβ1; [14]) was 990.28%, the “Percent increase in TGFβ1” value (TGFβ1; [15]) was 858.27% and the “Percent increase in TGFβ1” value (TGFβ1; [16]) was 759.25%. The “Percent increase in TGFβ1” value (TGFβ1; [17]) was 1,166.88%, the “Percent increase in TGFβ1” value (TGFβ1; [18]) was 492.89% and the “Percent increase in TGFβ1” value (TGFβ1; [19]) was 270.24%. For the same compound, the “Percent increase in TGFβ1” value (TGFβ1; [20]) was 123.01%, the “Percent increase in TGFβ1” value (TGFβ1; [21]) was 2,191.33% and the “Percent increase in TGFβ1” value (TGFβ1; [22]) was 1,562.26%. For the same compound, the “Percent increase in TGFβ1” value (TGFβ1; [23]) was 1,491.16%, the “Percent increase in TGFβ1” value (TGFβ1; [24]) was 1,373.96% and the “Percent increase in TGFβ1” value (TGFβ1; [25]) was 2,065.52%. The “Percent increase in TGFβ1” value (TGFβ1; [26]) was 745.49%, the “Percent increase in TGFβ1” value (TGFβ1; [27]) was 480.80% and the “Percent increase in TGFβ1” value (TGFβ1; [28]) was 138.39%. For the same compound, the “Percent increase in TGFβ1” value (TGFβ1; [29]) was 2,198.45%, the “Percent increase in TGFβ1” value (TGFβ1; [30]) was 1,562.45% and the “Percent increase in TGFβ1” value (TGFβ1; [31]) was 1,208.45%. The “Percent increase in TGFβ1” value (TGFβ1; [32]) was 1,001.31%, the “Percent increase in TGFβ1” value (TGFβ1; [33]) was 1,804.23% and the “Percent increase in TGFβ1” value (TGFβ1; [34]) was 1,220.34%. For the same compound, the “Percent increase in TGFβ1” value (TGFβ1; [35]) was 609.67% and the “Percent increase in TGFβ1” value (TGFβ1; [36]) was 121.89%.
